The values below come from PubChem BioAssay AID248 (DTP/NCI, 2004).

Each structure is given as a SMILES string. “And” between values parts separate entries of the source, which are not always exact repeats. Equal entries are not always repeated. Inconclusive results and toxic doses are left out.

The experiment has as its system L1210 leukemia ip in BDF1 mice, survival T/C. The experiment in a line: NCI In Vivo Anticancer Drug Screen. Data for tumor model L1210 Leukemia (intraperitoneal) in B6D2F1 (BDF1) mice. As to conditions: endpoint: mean survival time, higher = longer survival. The method in brief:
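Transplanted-tumor mice were given test agent; controls received vehicle only. Survival readings from the two groups were divided (treated over control).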

[1] abbreviates: dose: 50.0 mg/kg/injection, schedule: Q01DX001 (ip), vehicle: carboxymethylcellulose (CMC).
[2] abbreviates: dose: 100.0 mg/kg/injection, schedule: Q01DX001 (ip), vehicle: carboxymethylcellulose (CMC).
Where [3] appears, read: dose: 200.0 mg/kg/injection, schedule: Q01DX001 (ip), vehicle: carboxymethylcellulose (CMC).
The mark [4] stands for this setting: dose: 400.0 mg/kg/injection, schedule: Q01DX001 (ip), vehicle: carboxymethylcellulose (CMC).
The mark [5] stands for this setting: dose: 100.0 mg/kg/injection, schedule: Q01DX009 (ip), vehicle: Klucel (hydroxypropylcellulose) (HPC).
Setting [6] is: dose: 200.0 mg/kg/injection, schedule: Q01DX009 (ip), vehicle: Klucel (hydroxypropylcellulose) (HPC).
Where [7] appears, read: dose: 100.0 mg/kg/injection, schedule: Q04DX003 (ip), vehicle: saline with Tween-80.
Setting [8] is: dose: 200.0 mg/kg/injection, schedule: Q04DX003 (ip), vehicle: saline with Tween-80.
Where [9] appears, read: dose: 400.0 mg/kg/injection, schedule: Q04DX003 (ip), vehicle: saline with Tween-80.
[10] abbreviates: dose: 100.0 mg/kg/injection, schedule: Q01DX009 (ip), vehicle: saline with Tween-80.
The mark [11] stands for this setting: dose: 200.0 mg/kg/injection, schedule: Q01DX009 (ip), vehicle: saline with Tween-80.
[12] abbreviates: dose: 100.0 mg/kg/injection, schedule: Q01DX001 (ip), vehicle: saline with Tween-80.

For the molecule `Cc1cc(NC(=O)NCc2ccc(N)cc2)ccc1S(=O)(=O)F`, the T/C by setting is: (dose: 100.0 mg/kg/injection, schedule: Q01DX009 (ip), vehicle: saline) 95 % of control; (dose: 100.0 mg/kg/injection, schedule: Q04DX003 (ip), vehicle: saline) 100 % of control; (dose: 200.0 mg/kg/injection, schedule: Q01DX009 (ip), vehicle: saline) 114 % of control; (dose: 200.0 mg/kg/injection, schedule: Q04DX003 (ip), vehicle: saline) 96 % of control; (dose: 400.0 mg/kg/injection, schedule: Q01DX009 (ip), vehicle: saline) 93 % of control; (dose: 400.0 mg/kg/injection, schedule: Q04DX003 (ip), vehicle: saline) 100 % of control.
For the molecule `CCCCN(C)/N=N\c1[nH]ncc1C(N)=O`, the T/C by setting is: (dose: 8.5 mg/kg/injection, schedule: Q01DX009 (ip), vehicle: saline with Tween-80) 119 % of control; (dose: 13.0 mg/kg/injection, schedule: Q01DX009 (ip), vehicle: saline with Tween-80) 104 % of control; (dose: 16.25 mg/kg/injection, schedule: Q01DX009 (ip), vehicle: saline with Tween-80) 115 % of control; (dose: 20.0 mg/kg/injection, schedule: Q01DX009 (ip), vehicle: saline with Tween-80) 115 % of control; (dose: 30.5 mg/kg/injection, schedule: Q04DX003 (ip), vehicle: saline with Tween-80) 100 % of control; (dose: 44.0 mg/kg/injection, schedule: Q01DX009 (ip), vehicle: other) 165 % of control. Besides, the T/C (dose: 61.0 mg/kg/injection, schedule: Q04DX003 (ip), vehicle: saline with Tween-80) is 108 % of control; the T/C (dose: 65.0 mg/kg/injection, schedule: Q01DX009 (ip), vehicle: saline with Tween-80) was 157 % of control; the T/C (dose: 66.0 mg/kg/injection, schedule: Q01DX009 (ip), vehicle: other) was 184 % of control; the T/C (dose: 77.25 mg/kg/injection, schedule: Q01DX001 (ip), vehicle: saline with Tween-80) is 106 % of control; the T/C (dose: 122.0 mg/kg/injection, schedule: Q04DX003 (ip), vehicle: saline with Tween-80) was 119 % of control; the T/C (dose: 150.0 mg/kg/injection, schedule: Q01DX009 (ip), vehicle: other) is 114 % of control. The T/C is, setting by setting: (dose: 154.5 mg/kg/injection, schedule: Q01DX001 (ip), vehicle: saline with Tween-80) 117 % of control; (dose: 309.0 mg/kg/injection, schedule: Q01DX001 (ip), vehicle: saline with Tween-80) 114 % of control.
For the molecule `O=C(NCCCCCCCCCCNC(=O)Nc1ccc(C2=NCCCN2)cc1)Nc1ccc(C2=NCCCN2)cc1`, the T/C is 108 % of control (dose: 3.12 mg/kg/injection, schedule: Q01DX Z (ip), vehicle: carboxymethylcellulose (CMC)); 111 % of control (dose: 6.25 mg/kg/injection, schedule: Q01DX Z (ip), vehicle: carboxymethylcellulose (CMC)); 101 % of control (dose: 9.5 mg/kg/injection, schedule: Q01DX001 (ip), vehicle: other); 110 % of control (dose: 19.0 mg/kg/injection, schedule: Q01DX001 (ip), vehicle: other); 122 % of control (dose: 25.0 mg/kg/injection, schedule: Q01DX Z (ip), vehicle: carboxymethylcellulose (CMC)); 101 % of control (dose: 38.0 mg/kg/injection, schedule: Q01DX001 (ip), vehicle: other).
Regarding `CC(C)C1CCC(/C=C(\C#N)C2CCC([N+](=O)[O-])CC2)CC1` (stereo unspecified), the T/C by setting is: (dose: 100.0 mg/kg/injection, schedule: Q04DX002 (ip), vehicle: other) 95 % of control; (dose: 200.0 mg/kg/injection, schedule: Q04DX002 (ip), vehicle: other) 95 % of control; (dose: 400.0 mg/kg/injection, schedule: Q04DX002 (ip), vehicle: other) 92 % of control.
As for `OCCSc1ccc(Cl)cc1`, the T/C is, setting by setting: (dose: 100.0 mg/kg/injection, schedule: Q01DX009 (ip), vehicle: other) 97 % of control; (dose: 200.0 mg/kg/injection, schedule: Q01DX009 (ip), vehicle: other) 95 % of control.
Turning to `CS(=O)(=O)OCCCCO`, the T/C is 88 % of control under setting [1], 93 % of control under setting [2], 93 % of control under setting [3] and 90 % of control under setting [4].
In the case of `Cc1c(Cl)cccc1NC(=O)Oc1ccc(F)cc1Cl`, the T/C is 94 % of control under setting [5] and 95 % of control under setting [6].
On to `COc1ccc([N+](=O)[O-])cc1NS(=O)(=O)c1ccc(C)cc1`, for which the T/C (dose: 50.0 mg/kg/injection, schedule: Q04DX003 (ip), vehicle: saline with Tween-80) was 95 % of control; the T/C under setting [7] is 94 % of control and 90 % of control; the T/C under setting [8] is 86 % of control and 92 % of control; the T/C under setting [9] is 92 % of control.
On to `CC(C)=CCc1cccc(C)c1`, for which the T/C was 94 % of control (dose: 50.0 mg/kg/injection, schedule: Q01DX009 (ip), vehicle: saline with Tween-80); 98 % of control under setting [10]; 105 % of control under setting [11].
On to `CCCCCc1c2c(c(CCCCC)c3c1-c1cccc4cccc-3c14)-c1ccc(C)cc1C2`, for which the T/C is, setting by setting: under setting [12], 92 % of control; (dose: 400.0 mg/kg/injection, schedule: Q01DX001 (ip), vehicle: saline with Tween-80) 87 % of control.
Consider `O=C(NS(=O)(=O)c1ccc(Cl)c(Cl)c1)NS(=O)(=O)c1ccc(Cl)c(Cl)c1`, for which the T/C under setting [12] is 100 % of control and the T/C (dose: 200.0 mg/kg/injection, schedule: Q01DX001 (ip), vehicle: saline with Tween-80) was 99 % of control.
Turning to `O=C(COc1ccc(Cl)cc1)Nc1ccccc1C(F)(F)F`, the T/C by setting is: under setting [5], 102 % of control and 89 % of control; (dose: 100.0 mg/kg/injection, schedule: Q04DX003 (ip), vehicle: Klucel (hydroxypropylcellulose) (HPC)) 103 % of control; under setting [6], 100 % of control; (dose: 200.0 mg/kg/injection, schedule: Q04DX003 (ip), vehicle: Klucel (hydroxypropylcellulose) (HPC)) 106 % of control; (dose: 400.0 mg/kg/injection, schedule: Q01DX009 (ip), vehicle: Klucel (hydroxypropylcellulose) (HPC)) 98 % of control; (dose: 400.0 mg/kg/injection, schedule: Q04DX003 (ip), vehicle: Klucel (hydroxypropylcellulose) (HPC)) 93 % of control.
Take `O=P1(c2ccccc2)CCc2[nH]c3ccc(F)cc3c2C1` (stereo unspecified): the T/C is 97 % of control (dose: 100.0 mg/kg/injection, schedule: Q01DX001 (ip), vehicle: Klucel (hydroxypropylcellulose) (HPC)); 100 % of control (dose: 200.0 mg/kg/injection, schedule: Q01DX001 (ip), vehicle: Klucel (hydroxypropylcellulose) (HPC)); 98 % of control (dose: 400.0 mg/kg/injection, schedule: Q01DX001 (ip), vehicle: Klucel (hydroxypropylcellulose) (HPC)).
Consider `O=C(O)c1cocc1C(=O)N1Cc2cc3ccccc3nc2C1`, for which the T/C (dose: 10.0 mg/kg/injection, schedule: Q04DX003 (ip), vehicle: saline) is 103 % of control; the T/C (dose: 20.0 mg/kg/injection, schedule: Q04DX003 (ip), vehicle: saline) was 97 % of control; the T/C (dose: 40.0 mg/kg/injection, schedule: Q04DX003 (ip), vehicle: saline) was 105 % of control; the T/C (dose: 80.0 mg/kg/injection, schedule: Q04DX003 (ip), vehicle: saline) is 100 % of control; the T/C (dose: 160.0 mg/kg/injection, schedule: Q04DX003 (ip), vehicle: saline) is 103 % of control.
For `Cc1ccc[n+](CCc2c[nH]c3ccccc23)c1`, under setting [7], the T/C is 90 % of control.
In the case of `Cc1ccc(Cl)cc1NS(=O)(=O)c1ccc(Br)cc1`, the T/C is 95 % of control under setting [10]; 88 % of control under setting [7]; 90 % of control under setting [11]; 94 % of control under setting [8]; 90 % of control (dose: 400.0 mg/kg/injection, schedule: Q01DX009 (ip), vehicle: saline with Tween-80); 94 % of control under setting [9].
On to `CC12CCC(C(=O)C1=O)C2(C)C` (stereo unspecified), for which the T/C runs as follows: under setting [1], 121 % of control; under setting [2], 103 % of control; (dose: 100.0 mg/kg/injection, schedule: Q04DX002 (ip), vehicle: Klucel (hydroxypropylcellulose) (HPC)) 99 % of control; under setting [3], 109 % of control; (dose: 200.0 mg/kg/injection, schedule: Q04DX002 (ip), vehicle: Klucel (hydroxypropylcellulose) (HPC)) 96 % of control; under setting [4], 113 % of control. Besides, the T/C (dose: 400.0 mg/kg/injection, schedule: Q04DX002 (ip), vehicle: Klucel (hydroxypropylcellulose) (HPC)) is 89 % of control.
